# Test results published in US20100255530A1, “BACTERIA DETECTION AND/OR IDENTIFICATION MEDIUM” (BIOMERIEUX, priority 2007, published 2010).
# System: Citrobacter freundii 009
# Experiment: Impact of cellobiose on colony coloration, Citrobacter freundii 009
# Assay type: cell-based
# Settings: cellobiose 0.5 g/l in medium combining the glucuronide and galactoside substrates
# From the text: The coloration of these colonies is noted.
smiles,measurement,value
O=C[C@H](O)[C@@H](O)[C@H](O[C@@H]1O[C@H](CO)[C@@H](O)[C@H](O)[C@H]1O)[C@H](O)CO [cellobiose],distinction of the Citrobacter 009 strain from the E. coli strains,makes it possible to distinguish the Citrobacter 009 strain more clearly from the E. coli strains
